In patent US9878982B2, “Pyridine derivatives and anti-mycobacterial use thereof” (priority 2014, dated 2018):
Converted amounts (≈) assume the structure as drawn. Like-named read-outs stand apart in the source and are kept apart here.

Assays:
M. tuberculosis H37R = experiment: microbe, parasite or virus in culture; format: cell-based, Mycobacterium tuberculosis; conditions: for MIC: Mycobacterium tuberculosis, H37R, read-out: M. tuberculosis H37R LORA (MIC)
[1] = system: Mycobacterium tuberculosis (ATCC35801); experiment: In vivo efficacy in a mice model infected with M. tuberculosis by spray (lung bacteria load); conditions: female Balb/c mice, day 35, compared with the solvent treated group
M. tuberculosis H37Rv = experiment: In vitro efficacy test using the H37Rv strain, Microplate Alamar Blue Assay (MABA) MIC; format: cell-based, Mycobacterium tuberculosis; conditions: for MIC: Mycobacterium tuberculosis, H37RV
in vitro = conditions: human
Vero Cell = experiment: Vero cell cytotoxicity (IC50); format: cell-based; conditions: African green monkey kidney cells; for IC50: Chlorocebus sabaeus, Vero
Hela = Hela cell cytotoxicity (CC50); conditions: human cervical cancer cells; half of the toxic concentration
[2] = system: Mycobacterium smegmatis strain ATCC19420; experiment: In vitro efficacy test using Mycobacterium smegmatis strain ATCC19420 (MIC); format: cell-based; conditions: CA-MHB + 0.02% Tween 80, 30° C., read after 72 hours
[3] = aerobic, 7H9 medium, Alamar Blue, read-out: M. tuberculosis H37Rv MABA (MIC)
[4] = aerobic, 7H9 medium, Alamar Blue

Row | Structure (SMILES) | MIC (M. tuberculosis H37R) [µg/mL] | reduction of the amount of the bacteria in the lungs ([1]; 25 mg/kg by gavage once each working day for four weeks) [log] | MIC (M. tuberculosis H37Rv; [3]) [µg/mL] | MIC (M. tuberculosis H37Rv; wild-type H37Rv strain, two values per compound, read-out: MABA MIC vs. H37Rv) [µM] | MABA MIC vs. H37Rv (M. tuberculosis H37Rv; wild-type H37Rv strain, two values per compound) [µM] | CC50 (in vitro) [µg/mL] | IC50 (Vero Cell) [µg/mL] | CC50_Hela (Hela) [µg/mL] | M. smegmatis ATCC19420 MIC [2] [µg/mL] | M. tuberculosis H37R LORA (MIC) (M. tuberculosis H37R) [µg/mL] | M. tuberculosis H37Rv MABA (MIC) (M. tuberculosis H37Rv; [4]) [µg/mL] | Vero Cell (IC50) (Vero Cell) [µg/mL] | reduction of the amount of the bacteria in the lungs ([1]; 15 mg/kg by gavage once each working day for four weeks) [log]
1 | COc1nc2ccc(Br)cc2cc1[C@@H](c1ccccc1)[C@@](O)(CCN(C)C)c1cccc2ccccc12 [Bedaquiline, reference compound] | 0.2 (≈ 0.36 µM) | 5.2 | 0.03 | 0.06 | 0.05 | > 64 | > 32 | – | – | – | – | – | –
2 | COc1ncc(C2CCCCC2)cc1C(c1ccccc1)C(O)(CCN(C)C)c1cccc2ccccc12 (centres unmarked) [Compound 103, 1-(5-cyclohexyl-2-methoxypyridin-3-yl)-4-(dimethylamino)-2-(naphthalen-1-yl)-1-phenylbutan-2-ol] | 1.48 (≈ 2.91 µM) | – | 0.76 | – | – | – | 32.3 (≈ 63.5 µM) | 57.72 (≈ 113 µM) | 0.125 | – | – | – | –
3 | COc1ncc(C2CCCCC2)cc1C(c1ccccc1)C(O)(CCN(C)C)c1cccc2ccccc12 (centres unmarked) [Compound 104, 1-(5-cyclohexyl-2-methoxypyridin-3-yl)-4-(dimethylamino)-2-(naphthalen-1-yl)-1-phenylbutan-2-ol] | – | – | – | – | – | – | – | 19.18 (≈ 37.7 µM) | 0.5 | 1.52 | 1.45 | >50 | –
4 | COc1ncc(-c2csc(Br)c2)cc1C(c1ccccc1)C(O)(CCN(C)C)c1cccc2ccccc12 (centres unmarked) [Compound 275] | – | – | – | – | – | – | – | >64 | 0.125 | 0.67 | 0.41 | >32 | –
5 | CO[C@H]1/C=C/O[C@@]2(C)Oc3c(C)c(O)c4c(O)c(c(/C=N/N5CCN(C)CC5)c(O)c4c3C2=O)NC(=O)/C(C)=C\C=C\[C@H](C)[C@H](O)[C@@H](C)[C@@H](O)[C@@H](C)[C@H](OC(C)=O)[C@@H]1C [rifampicin] | – | – | – | – | – | – | – | – | – | – | – | – | 1.8
